Tested on: NPY2R‐neurons
Assay: Ca^2+ imaging, NPY2R‐neurons (iPSC‐derived)
Type: cell-based, human
Procedure: Before initiating differentiation, the iPSCs (1–2 × 10^5 cells·cm^−2; Cell lines and cell culture section) were transferred to 6‐well plates (Corning, Inc., Corning, NY, USA) coated with 2‐methacryloyloxyethyl phosphorylcholine (MPC) polymer (Lipidure CM5206E; NOF, Tokyo, Japan). The cells were maintained in mTeSR1 cGMP medium containing 10 μM Y‐27632 (Fujifilm Wako Pure Chemical Industries) for 2 or 3 days to form embryoid body (EBs) in a rotary shaker at 95 r.p.m. (OS‐762RC; Optime, Tokyo, Japan). Subsequently, iPSCs were differentiated into neural crest cells (NCCs), as previously reported. Briefly, NCCs were induced from Ebs using knockout serum replacement (KSR) medium and N2 medium with graded addition of nerve growth factors and signaling factors. KSR medium was composed of DMEM‐F12 (Fujifilm Wako Pure Chemical Industries), 20% KSR (Thermo Fisher Scientific), 1% NEAA, 1% monothioglycerol (Fujifilm Wako Pure Chemical Industries), and 1% P/S. N2 medium consisted of DMEM‐F12, 1% N2 supplement (Fujifilm Wako Pure Chemical Industries), 1% NEAA, and 1% P/S. When EB formation was considered day 0 of induction, the medium was changed at days 2, 5, 7, 9, and 12. […]

PYY: PYY (4400‐v; Peptide Institute, Inc.); PYY (3–36) in Ca2+ imaging
Intracellular Ca^2+ concentration (traces) (100 nM PYY (PYY (3–36) in method), NPY2R‐neurons day 35, Fluo‐8 AM, Fig. S5C): increased intracellular Ca^2+ concentration | Fluorescence intensity (ΔF stim/F 0) (PYY, 10 nM per Fig. 6 legend (100 nM in text and Fig. S5C), day 35, n = 10, Student's t‐test vs. 0 nM, Fig. 6E): significantly increased fluorescence intensity

— paper PMC10761937, “Functional engineering of human iPSC‐derived parasympathetic neurons enhances responsiveness to gastrointestinal hormones” (FEBS Open Bio, 2023)
